The record followed here is patent US20110015119A1, “NOVEL SEMI-SYNTHETIC GLYCOPEPTIDES AS ANTIBACTERIAL AGENTS” (LEAD THERAPEUTICS, INC., priority 2009, published 2011).

Type in all cases: cell-based
For assay [1], the system named is Streptococcus pneumoniae 1195 (ATCC 49619). Briefly: MIC by broth microdilution, SPNE 1195. As to conditions: Streptococcus pneumoniae, ATCC49619, read-out: MIC S PNE 1195. The procedure:
(§1) Antibacterial activity in vitro is investigated by broth microdilution method in Meuller-Hinton broth as recommended by NCCLS. All strains tested are clinical isolates either sensitive or resistant to natural glycopeptides. MIC values were determined using the CLSI-recommended broth microdilution procedure (Clinical and Laboratory Standards Institute, Methods for Dilution Antimicrobial Susceptibility Tests for Bacteria That Grow Aerobically; Approved Standard-Seventh Edition.). Automated liquid handlers (Multidrop 384, Labsystems, Helsinki, Finland; Biomek 2000 and Multimek 96, Beckman Coulter, Fullerton Calif.) were used to conduct serial dilutions and liquid transfers. The MIC value for vancomycin is given for comparison. The abbreviations for organisms tested are as follow: SA 100—Staphylococcus aureus 100 (ATCC 29213); SA 757—Staphylococcus aureus 757 (MRSA); SA 2012—Staphylococcus aureus 2012 (VISA); SE 835—Staphylococcus epidermidis 835; SE 831—Staphylococcus epidermidis 831 (MRSE); EFc 101—Enterococcus faecalis 101 (ATCC 29212); EFc 848—Enterococcus faecalis 848 (VRE, Van A); EFcm 800—Enterococcus faecium 800; EFcm 752—Enterococcus faecium 752 (VRE, Van A); SPNE 1195—Streptococcus pneumoniae 1195 (ATCC 49619); SPY 712—Streptococcus pyogenes 712.

Assay [2] concerns Staphylococcus aureus 757 (MRSA). Briefly: MIC by broth microdilution, SA 757. As to conditions: Staphylococcus aureus, MRSA, read-out: MIC SA 757. The procedure:
as §1
In general terms: Broth dilution looks for growth in wells or tubes with falling amounts of substance.

Assay [3] concerns Streptococcus pyogenes 712. As to the kind of experiment: MIC by broth microdilution, SPY 712. As to conditions: Streptococcus pyogenes, 712, read-out: MIC S PYO 712. On the procedure:
as §1

The test system of assay [4] is Enterococcus faecium 800. Briefly: MIC by broth microdilution, EFcm 800. To be noted: Enterococcus faecium, 800, read-out: MIC E FCM 800. On the procedure:
as §1

For assay [5], the system named is Staphylococcus aureus 2012 (VISA). Briefly: MIC by broth microdilution, SA 2012. To be noted: Staphylococcus aureus, VISA, read-out: MIC SA 2012, Staphylococcus aureus 2012 (VISA); class symbols. The procedure:
as §1

The test system of assay [6] is Enterococcus faecium 752 (VRE, Van A). Briefly: MIC by broth microdilution, EFcm 752. To be noted: Enterococcus faecium, VRE, read-out: MIC E FCM 752, Enterococcus faecium 752 (VRE, Van A); class symbols. The procedure: as §1
Assay [7] concerns Staphylococcus epidermidis 831 (MRSE). As to the kind of experiment: MIC by broth microdilution, SE 831. To be noted: Staphylococcus epidermidis, MRSE, read-out: MIC SE 831. On the procedure:
as §1

Assay [8] has as its system Enterococcus faecalis 848 (VRE, Van A). Briefly: MIC by broth microdilution, EFc 848. As to conditions: Enterococcus faecalis, VRE, read-out: MIC E FC 848, Enterococcus faecalis 848 (VRE, Van A); class symbols. The procedure:
as §1

Assay [9] concerns Staphylococcus epidermidis 835. Briefly: MIC by broth microdilution, SE 835. As to conditions: Staphylococcus epidermidis, 835, read-out: MIC SE 835. On the procedure:
as §1

The subject of assay [10] is Staphylococcus aureus 100 (ATCC 29213). Briefly: MIC by broth microdilution, SA 100. To be noted: Staphylococcus aureus, ATCC29213, read-out: MIC SA 100. The procedure: as §1
The test system of assay [11] is Enterococcus faecalis 101 (ATCC 29212). As to the kind of experiment: MIC by broth microdilution, EFc 101. To be noted: Enterococcus faecalis, ATCC29212, read-out: MIC E FC 101, Enterococcus faecalis 101 (ATCC 29212); class symbols. On the procedure: as §1

Molecules are shown by their SMILES. In brackets after ≈: the same amount, converted by molar mass.

As to `CCCCCCc1ccc(S(=O)(=O)NCCCCCCNC(=O)Oc2cc(O)c3c(c2)[C@@H](C(=O)O)NC(=O)[C@H]2NC(=O)[C@H](NC(=O)[C@@H]4NC(=O)[C@H](CC(N)=O)NC(=O)[C@H](NC(=O)[C@@H](CC(C)C)NC)[C@H](O)c5ccc(c(Cl)c5)Oc5cc4cc(c5O[C@@H]4O[C@H](CO)[C@@H](O)[C@H](O)[C@H]4O[C@H]4C[C@](C)(N)[C@H](O)[C@H](C)O4)Oc4ccc(cc4Cl)[C@H]2O)c2ccc(O)c-3c2)cc1` (atropisomer, axis not shown) [Compound 352], the MIC (as a rule, the least concentration at which growth counts as inhibited) in assay [1] is 0.01 to 0.5 µg/mL (≈ 0.00551 to 0.275 µM); in [2] it was 0.01 to 0.5 µg/mL (≈ 0.00551 to 0.275 µM); in [3], 0.01 to 0.5 µg/mL (≈ 0.00551 to 0.275 µM); in [4] it was 0.01 to 0.5 µg/mL (≈ 0.00551 to 0.275 µM); in assay [5] it was 0.01 to 0.5 µg/mL (≈ 0.00551 to 0.275 µM); in assay [6], 0.5 to 1 µg/mL (≈ 0.275 to 0.551 µM). Besides, the MIC in [7] fell in the range of 0.01 to 0.5 µg/mL (≈ 0.00551 to 0.275 µM); in assay [8] it was 2 to 4 µg/mL (≈ 1.1 to 2.2 µM); in assay [9] it was 0.01 to 0.5 µg/mL (≈ 0.00551 to 0.275 µM); in assay [10] it was 0.01 to 0.5 µg/mL (≈ 0.00551 to 0.275 µM); in [11], 0.01 to 0.5 µg/mL (≈ 0.00551 to 0.275 µM).
Regarding `CCOCCOCCNC(=O)Oc1cc(O)c2c(c1)[C@@H](C(=O)O)NC(=O)[C@H]1NC(=O)[C@H](NC(=O)[C@@H]3NC(=O)[C@H](CC(N)=O)NC(=O)[C@H](NC(=O)[C@@H](CC(C)C)NC)[C@H](O)c4ccc(c(Cl)c4)Oc4cc3cc(c4O[C@@H]3O[C@H](CO)[C@@H](O)[C@H](O)[C@H]3O[C@H]3C[C@](C)(N)[C@H](O)[C@H](C)O3)Oc3ccc(cc3Cl)[C@H]1O)c1ccc(O)c-2c1` (atropisomer, axis not shown) [Compound 353], the MIC in assay [1] was 0.01 to 0.5 µg/mL (≈ 0.00622 to 0.311 µM); in [2] it was 4 to 8 µg/mL (≈ 2.49 to 4.97 µM); in assay [3] it was 1 to 2 µg/mL (≈ 0.622 to 1.24 µM); in assay [4] it was 2 to 4 µg/mL (≈ 1.24 to 2.49 µM); in assay [5] it was > 16 µg/mL; in [6], > 16 µg/mL. For the same molecule, the minimum inhibitory concentration (MIC) in assay [7] is 4 to 8 µg/mL (≈ 2.49 to 4.97 µM); in [8], > 16 µg/mL; in assay [9], 8 to 16 µg/mL (≈ 4.97 to 9.95 µM); in assay [10], 4 to 8 µg/mL (≈ 2.49 to 4.97 µM); in [11], 4 to 8 µg/mL (≈ 2.49 to 4.97 µM).
On to `CCCCCCc1ccc(NC(=O)NCCCCCCNC(=O)Oc2cc(O)c3c(c2)[C@@H](C(=O)O)NC(=O)[C@H]2NC(=O)[C@H](NC(=O)[C@@H]4NC(=O)[C@H](CC(N)=O)NC(=O)[C@H](NC(=O)[C@@H](CC(C)C)NC)[C@H](O)c5ccc(c(Cl)c5)Oc5cc4cc(c5O[C@@H]4O[C@H](CO)[C@@H](O)[C@H](O)[C@H]4O[C@H]4C[C@](C)(N)[C@H](O)[C@H](C)O4)Oc4ccc(cc4Cl)[C@H]2O)c2ccc(O)c-3c2)cc1` (atropisomer, axis not shown) [Compound 354], for which the MIC was in the range of 0.01 to 0.5 µg/mL (≈ 0.00557 to 0.279 µM) in assay [1]; 0.01 to 0.5 µg/mL (≈ 0.00557 to 0.279 µM) in assay [2]; 0.01 to 0.5 µg/mL (≈ 0.00557 to 0.279 µM) in [3]; 0.01 to 0.5 µg/mL (≈ 0.00557 to 0.279 µM) in assay [4]; 0.5 to 1 µg/mL (≈ 0.279 to 0.557 µM) in [5]; 0.01 to 0.5 µg/mL (≈ 0.00557 to 0.279 µM) in assay [6]. Also, the MIC in assay [7] is 0.01 to 0.5 µg/mL (≈ 0.00557 to 0.279 µM); in assay [8], 2 to 4 µg/mL (≈ 1.11 to 2.23 µM); in assay [9] it was 0.01 to 0.5 µg/mL (≈ 0.00557 to 0.279 µM); in assay [10], 0.01 to 0.5 µg/mL (≈ 0.00557 to 0.279 µM); in assay [11], 0.01 to 0.5 µg/mL (≈ 0.00557 to 0.279 µM).
